Where two headings read alike, the source gives them in different places.
Legend:
Format in all cases: cell-based
RS4; 11 = test: Cell viability assay (MTS) in RS4; 11 cells; set-up: Anti-Cancer Activity IC50 (48 hr) RS4; 11: scale not given here; settings: for IC50: Homo sapiens, RS4-11
Description: (§1) Acute lymphoblastic leukemia cells (MOLT-4 and RS4; 11) were incubated with increasing concentrations of Bcl-xL degraders for 48 h. Cell viability was measured by tetrazolium-based MTS assay.

MOLT-4 = test: Cell viability assay (MTS) in MOLT-4 cells; settings: Homo sapiens, MOLT-4
Description: as §1

human platelets = test: Platelet toxicity assay (MTS viability); settings: for IC50: Homo sapiens, Platelet, 48 h, human platelets
Description: Platelet-rich plasma (PRP) was purchased from Life South Community Blood Centers (Gainesville, FL, USA). PRP was transferred into a 50 mL tube containing 5 mL of the acid citrate buffer (Cat. No. sc-214744, Santa Cruz Biotechnology). To prevent clotting, prostaglandin E1 (PGE1, Cat. No. sc-201223A, Santa Cruz Biotechnology, Dallas, TX, USA) and apyrase (Cat. No. A6237, Sigma-Aldrich, St. Louis, MO, USA) were added to final concentrations of […] and 0.2 U/mL, respectively. After gently mixing the solution, platelets were pelleted by centrifugation at 1200 g for 10 min without break. Pelleted platelets were gently washed without disturbing platelets using 2 mL of HEPES Tyrode's buffer (Cat. No. PY-921WB, Boston BioProducts, Ashland, MA, USA) containing […] PGE1 and 0.2 U/mL apyrase. After washing, pellets were gently suspended in 10 mL of HEPES Tyrode's buffer containing […] PGE1 and 0.2 U/mL apyrase. Then, the platelet number was counted using a HEMAVET 950FS hematology analyzer (Drew Scientific, Inc., Oxford, CT, USA). For viability assays, the platelet number was adjusted to 2×10^8/mL in HEPES Tyrode's buffer containing […] PGE1 and 0.2 U/mL apyrase. Each treatment was given in 2 mL of the platelet suspension in 15 mL polypropylene tubes. The tubes were placed on a rotating platform at room temperature, and the viability of platelets was measured after 48 h treatment by using the MTS reagent (Cat. No. G1111, Promega, Madison, WI, USA). The data were analyzed by the GraphPad Prism 7 software for the calculation of IC50 values.

[1] = Table 2, 48 hr, MTS, read-out: Anti-Cancer Activity IC50 (48 hr) RS4, 11
[2] = Table 2, 48 hr, MTS, read-out: Anti-Cancer Activity IC50 (48 hr) MOLT-4
[3] = Table 3, 48 h, mean of two independent experiments in triplicates, read-out: MOLT-4 48 h IC50
[4] = Table 3, mean of two independent experiments in triplicates, read-out: Platelets 48 h IC50
[5] = Table 3, ratio of platelet IC50 to MOLT-4 IC50
[6] = Table 5, 48 h, read-out: RS4 48 h IC50
[7] = Table 5, 48 h, read-out: MOLT-4 48 h IC50
[8] = Table 5, read-out: Platelets 48 h IC50
[9] = Table 4, 48 h, read-out: RS4 48 h IC50
[10] = Table 4, read-out: Platelets 48 h IC50

SMILES | IC50 (RS4; 11; [1]) [nM] | IC50 (MOLT-4; [2]) [nM] | IC50 (MOLT-4; [3]) [nM] | IC50 (human platelets; [4]) [nM] | Platelets/MOLT-4 IC50 Fold change (human platelets; [5]) | IC50 (RS4; 11; [6]) [nM] | Anti-Cancer Activity IC50 (48 hr) RS4; 11 (RS4; 11; Table 2, 48 hr, MTS) | IC50 (MOLT-4; [7]) [nM] | IC50 (human platelets; [8]) [nM] | IC50 (RS4; 11; [9]) [nM] | IC50 (MOLT-4; Table 4, 48 h, read-out: MOLT-4 48 h IC50) [nM] | IC50 (human platelets; [10]) [nM] | IC50 (human platelets; Table 6, 4 th time, read-out: Platelets 4 th time 48 h IC50) [nM] | PLT/MOLT-4 IC50 Fold Change (human platelets; Table 4, ratio of platelet IC50 to MOLT-4 IC50) | Platelets/MOLT-4 IC50 Fold change (human platelets; Table 6, ratio of platelet IC50 to MOLT-4 IC50)
Cc1ncsc1-c1ccc([C@H](C)NC(=O)[C@@H]2C[C@@H](O)CN2C(=O)[C@@H](NC(=O)CCCCCNC(=O)c2ccc(N3CCN(CC4(C)CCC(c5ccc(Cl)cc5)=C(CN5CCN(c6ccc(C(=O)NS(=O)(=O)c7ccc(N[C@H](CCN8CCOCC8)CSc8ccccc8)c(S(=O)(=O)C(F)(F)F)c7)cc6)CC5)C4)CC3)cc2)C(C)(C)C)cc1 (stereo partly drawn) [Compound 12, (2S,4R)-1-((2S)-2-(6-(4-(4-((4′-chloro-4-methyl-6-((4-(4-(((4-(((R)-4-morpholino-1-(phenylthio)butan-2-yl)amino)-3-((trifluoromethyl)sulfonyl)phenyl)sulfonyl)carbamoyl)phenyl)piperazin-1-yl)methyl)-2,3,4,5-tetrahydro-[1,1′-biphenyl]-4-yl)methyl)piperazin-1-yl)benzamido)hexanamido)-3,3-dimethylbutanoyl)-4-hydroxy-N—((S)-1-(4-(4-methylthiazol-5-yl)phenyl)ethyl)pyrrolidine-2-carboxamide] | 20 to 100 | < 20 | 17.5 | 2160 | 123 |  |  |  |  |  |  |  |  |  | 
Cc1ncsc1-c1ccc([C@H](C)NC(=O)[C@@H]2C[C@@H](O)CN2C(=O)[C@@H](NC(=O)CCCCCCC(=O)N2CCN(CC3(C)CCC(c4ccc(Cl)cc4)=C(CN4CCN(c5ccc(C(=O)NS(=O)(=O)c6ccc(N[C@H](CCN7CCC7)CSc7ccccc7)c([N+](=O)[O-])c6)cc5)CC4)C3)CC2)C(C)(C)C)cc1 (stereo partly drawn) [Compound 37, (2S,4R)-1-((2S)-2-(8-(4-((6-((4-(4-(((4-(((R)-4-(azetidin-1-yl)-1-(phenylthio)butan-2-yl)amino)-3-nitrophenyl)sulfonyl)carbamoyl)phenyl)piperazin-1-yl)methyl)-4′-chloro-4-methyl-2,3,4,5-tetrahydro-[1,1′-biphenyl]-4-yl)methyl)piperazin-1-yl)-8-oxooctanamido)-3,3-dimethylbutanoyl)-4-hydroxy-N—((S)-1-(4-(4-methylthiazol-5-yl)phenyl)ethyl)pyrrolidine-2-carboxamide] |  | < 20 |  |  |  | 7 | + + | 20 | 4620 |  |  |  |  |  | 
Cc1ncsc1-c1ccc([C@H](C)NC(=O)[C@@H]2C[C@@H](O)CN2C(=O)[C@@H](NC(=O)CCCCCCC(=O)N2CCN(CC3(C)CCC(c4ccc(Cl)cc4)=C(CN4CCN(c5ccc(C(=O)NS(=O)(=O)c6ccc(N[C@H](CCN7CCCC7)CSc7ccccc7)c([N+](=O)[O-])c6)cc5)CC4)C3)CC2)C(C)(C)C)cc1 (stereo partly drawn) [Compound 38, (2S,4R)-1-((2S)-2-(8-(4-((4′-chloro-4-methyl-6-((4-(4-(((3-nitro-4-(((R)-1-(phenylthio)-4-(pyrrolidin-1-yl)butan-2-yl)amino)phenyl)sulfonyl)carbamoyl)phenyl)piperazin-1-yl)methyl)-2,3,4,5-tetrahydro-[1,1′-biphenyl]-4-yl)methyl)piperazin-1-yl)-8-oxooctanamido)-3,3-dimethylbutanoyl)-4-hydroxy-N—((S)-1-(4-(4-methylthiazol-5-yl)phenyl)ethyl)pyrrolidine-2-carboxamide] |  | < 20 | 17.6 | 3000 | 170 |  | + ++ |  |  |  |  |  |  |  | 
Cc1ncsc1-c1ccc([C@H](C)NC(=O)[C@@H]2C[C@@H](O)CN2C(=O)[C@@H](NC(=O)CCCCCCC(=O)N2CCN(CC3(C)CCC(c4ccc(Cl)cc4)=C(CN4CCN(c5ccc(C(=O)NS(=O)(=O)c6ccc(N[C@H](CCN7CCCCC7)CSc7ccccc7)c([N+](=O)[O-])c6)cc5)CC4)C3)CC2)C(C)(C)C)cc1 (stereo partly drawn) [Compound 39, (2S,4R)-1-((2S)-2-(8-(4-((4′-chloro-4-methyl-6-((4-(4-(((3-nitro-4-(((R)-1-(phenylthio)-4-(piperidin-1-yl)butan-2-yl)amino)phenyl)sulfonyl)carbamoyl)phenyl)piperazin-1-yl)methyl)-2,3,4,5-tetrahydro-[1,1′-biphenyl]-4-yl)methyl)piperazin-1-yl)-8-oxooctanamido)-3,3-dimethylbutanoyl)-4-hydroxy-N—((S)-1-(4-(4-methylthiazol-5-yl)phenyl)ethyl)pyrrolidine-2-carboxamide] | < 20 | < 20 | 14.3 | 4570 | 319 | 8.4 |  |  | 4570 |  |  |  |  |  | 
Cc1ncsc1-c1ccc([C@H](C)NC(=O)[C@@H]2C[C@@H](O)CN2C(=O)[C@@H](NC(=O)CCCCCCC(=O)N2CCN(CC3(C)CCC(c4ccc(Cl)cc4)=C(CN4CCN(c5ccc(C(=O)NS(=O)(=O)c6ccc(N[C@H](CCN(C)CCO)CSc7ccccc7)c([N+](=O)[O-])c6)cc5)CC4)C3)CC2)C(C)(C)C)cc1 (stereo partly drawn) [Compound 41, (2S,4R)-1-((2S)-2-(8-(4-((4′-chloro-6-((4-(4-(((4-(((R)-4-((2-hydroxyethyl)(methyl)amino)-1-(phenylthio)butan-2-yl)amino)-3-nitrophenyl)sulfonyl)carbamoyl)phenyl)piperazin-1-yl)methyl)-4-methyl-2,3,4,5-tetrahydro-[1,1′-biphenyl]-4-yl)methyl)piperazin-1-yl)-8-oxooctanamido)-3,3-dimethylbutanoyl)-4-hydroxy-N—((S)-1-(4-(4-methylthiazol-5-yl)phenyl)ethyl)pyrrolidine-2-carboxamide] | < 20 | 20 to 100 | 38.1 | 4900 | 128 |  |  |  |  |  |  |  |  |  | 
Cc1ncsc1-c1ccc([C@H](C)NC(=O)[C@@H]2C[C@@H](O)CN2C(=O)[C@@H](NC(=O)CCCCCCC(=O)N2CCN(C[C@]3(C)CCC(c4ccc(Cl)cc4)=C(CN4CCN(c5ccc(C(=O)NS(=O)(=O)c6ccc(N[C@H](CCN(C)CCO)CSc7ccccc7)c(S(=O)(=O)C(F)(F)F)c6)cc5)CC4)C3)CC2)C(C)(C)C)cc1 [Compound 62] | < 20 | < 20 |  |  |  |  |  |  |  | < 7 | 21 | > 10000 |  |  | 
Cc1ncsc1-c1ccc([C@H](C)NC(=O)[C@@H]2C[C@@H](O)CN2C(=O)[C@@H](NC(=O)CCCCCCC(=O)N2CCN(C[C@]3(C)CCC(c4ccc(Cl)cc4)=C(CN4CCN(c5ccc(C(=O)NS(=O)(=O)c6ccc(N[C@H](CCN7C[C@H]8C[C@@H]7CO8)CSc7ccccc7)c(S(=O)(=O)C(F)(F)F)c6)cc5)CC4)C3)CC2)C(C)(C)C)cc1 [Compound 66] | < 20 | < 20 | 2.3 | 853 | 370 |  |  |  |  | 1.6 |  | 853 | 853 | 370 | 370
Cc1ncsc1-c1ccc([C@H](C)NC(=O)[C@@H]2C[C@@H](O)CN2C(=O)[C@@H](NC(=O)CCCCC(=O)N2CCC(C3CCN(CC4(C)CCC(c5ccc(Cl)cc5)=C(CN5CCN(c6ccc(C(=O)NS(=O)(=O)c7ccc(N[C@H](CCN8C[C@H]9C[C@@H]8CO9)CSc8ccccc8)c(S(=O)(=O)C(F)(F)F)c7)cc6)CC5)C4)CC3)CC2)C(C)(C)C)cc1 (some centres unmarked) [Compound 69] | < 20 | < 20 |  |  |  | 3.7 |  | 1.9 | 157 |  |  |  |  |  | 

— US20250154141A1 (University of Florida Research Foundation, Incorporated, priority 2021, published 2025)
